The text below walks through data of US20150157023A1, “S[…] CONTROL FROM COMBINATIONS OF 2,4-D-CHOLINE AND GLUFOSINATE” (Dow AgroSciences LLC, priority 2013, published 2015).

The subject of the series is AAD12 Soybean (GLXMA). Kind of series: Field crop tolerance trials (% visual injury, chlorosis, growth inhibition). The procedure: These trials were conducted under field conditions in multiple states in the United States, including but not limited to Arkansas, Illinois, Indiana, Minnesota, Mississippi, Nebraska, Ohio, Oklahoma, Texas, South Carolina and South Dakota. […] Treatments were applied with small plot backpack sprayers, using pressurized air or carbon dioxide (CO2) as propellant. Pressure varied from 22-50 pounds per square inch (psi), with spray tips typically of a Flat Fan type applying water diluent at 15 gallons per acre (GPA). Boom sizes varied from 6.3-10 ft in width. Treatments were applied to soybean, cotton, corn or fallow crop land. Weed sizes varied, but all treatments were applied as post-emergence treatments to weeds from 2 leaf to 2 tiller growth stages varying from 2 to 15 inches in height. The weed spectrum included, but was not limited to, Amaranthus palmeri S. Wats. (Palmer amaranth, AMAPA), Conyza canadensis (L.) Cronq. (horseweed, ERICA), Salsola tragus L. (Russian thistle, SASKR) and Sesbania exaltata (hemp sesbania, SEBEX).
2,4-D- and glufosinate-tolerant soybeans, corn and cotton and optionally a glyphosate trait in a breeding (CP4 EPSPS) or a molecular stack (2mEPSPS) were used in all tolerance trials.
The 2,4-D-choline salt formulation was a 456 g ae/L SL. […] All treatments were mixed in water at appropriate formulated product rates to achieve the desired rates as shown based on a unit area of application (hectare). Treatments were rated at 2 to 28 days after application (DAA) as compared to the untreated control plants. The trial sites had naturally occurring populations of weeds. The treated plots and control plots were rated blind at various intervals after application. […]

Counter-ions that a name gives are not always drawn.

On to `CP(=O)(O)CCC(N)C(=O)O` (centres unmarked) [Glufosinate-ammonium, ammonium (3-amino-3-carboxypropyl)(methyl)phosphinate], for which the “Mean % crop growth inhibition” value is, setting by setting: (7DAA, 1084 g ae/ha) 14.0%; (15DAA, 1084 g ae/ha) 9.8%.

For `O=C(O)COc1ccc(Cl)cc1Cl` [2,4-D-Choline salt, 2-hydroxy-N,N,N-trimethylethanaminium 2-(2,4-dichlorophenoxy)acetate], the “Mean % crop growth inhibition” value was 1% (7DAA, 2130 g ae/ha); 0% (14DAA, 2130 g ae/ha); 0% (15DAA, 2130 g ae/ha).
